Data set [1] in a line: MTT cytotoxicity assay, L929. As to conditions: mouse, L929 fibroblast cells, 5 days incubation. In kind it is cell-based, mouse. Here is the method:
(§1) In vitro cytotoxicity (IC50) of the pure compounds 1–5 was determined against a panel of mammalian cell lines including mouse fibroblast L929, HeLa (KB-3-1), epidermoid carcinoma cells A431, breast cancer cells MCF-7, prostate cancer cells PC-3 and adenocarcinomic human alveolar basal epithelial cells A549. The cell lines were cultured in DMEM (Gibco, ThermoFisher Scientific, Hilden, Germany) and MCF-7 in RPMI (Lonza, Cologne, Germany) media, all supplemented with 10% of fetal bovine serum (Gibco) under 10% CO2 at 37 °C. The cytotoxicity assay was performed according to the MTT (3-(4,5-dimethylthiazol-2-yl)-2,5 diphenyltetrazolium bromide) method in 96-well microplates (ThermoFisher Scientific). Briefly 60 μL aliquots of serial dilutions from an initial stock of 1 mg/mL in MeOH of the test compounds were added to 120 μL aliquots of a cell suspension (5.0 × 10^4 cells/mL) in 96-well microplates. After 5 days incubation, a MTT assay was performed, and the absorbance measured at 590 nm using an ELISA plate reader (Victor, PerkinElmer, Überlingen, Germany). The concentration at which the growth of cells was inhibited to 50% of the control (IC50) was obtained from the dose response curves. The negative control was methanol.

The nature of data set [2]: MTT cytotoxicity assay, KB3.1. In kind it is cell-based, human. Conditions: human, HeLa (KB-3-1) cells, KB3.1 cells, 5 days incubation. Here is the method:
as §1

Data set [3] can be described thus: MTT cytotoxicity assay, A431. As to conditions: human, A431 epidermoid carcinoma cells, 5 days incubation. In kind it is cell-based, human. The procedure: as §1
The nature of data set [4]: MTT cytotoxicity assay, A549. In kind it is cell-based, human. As to conditions: human, A549 alveolar basal epithelial adenocarcinoma cells, 5 days incubation. Here is the method:
as §1

The nature of data set [5]: MTT cytotoxicity assay, PC-3. In kind it is cell-based, human. As to conditions: human, PC-3 prostate cancer cells, PC-3 cells, 5 days incubation. The procedure: as §1
Data set [6] is described as follows: MTT cytotoxicity assay, SKOV-3. Conditions: human, SKOV-3 cells, 5 days incubation. In kind it is cell-based, human.
The nature of data set [7]: MTT cytotoxicity assay, MCF-7. In kind it is cell-based, human. Conditions: human, MCF-7 breast cancer cells, MCF-7 cells, 5 days incubation. The procedure: as §1
Data set [8] has as its system mouse fibroblast L929. Kind of data set: MTT cytotoxicity assay, L929. In kind it is cell-based. Conditions: L929 cells, 5 days incubation. The procedure:
as §1

In data set [9] the test system is HeLa (KB-3-1). Kind of data set: MTT cytotoxicity assay, KB3.1. In kind it is cell-based, human. As to conditions: KB3.1 cells, 5 days incubation. The procedure: as §1
Data set [10] has as its system epidermoid carcinoma cells A431. Kind of data set: MTT cytotoxicity assay, A431. In kind it is cell-based, human. As to conditions: 5 days incubation. Here is the method: as §1
Data set [11] has as its system adenocarcinomic human alveolar basal epithelial cells A549. Kind of data set: MTT cytotoxicity assay, A549. In kind it is cell-based. Conditions: 5 days incubation. Here is the method: as §1
In data set [12] the test system is prostate cancer cells PC-3. Kind of data set: MTT cytotoxicity assay, PC-3. In kind it is cell-based, human. As to conditions: PC-3 cells, 5 days incubation. The procedure:
as §1

The test system of data set [13] is SKOV-3. Kind of data set: MTT cytotoxicity assay, SKOV-3. In kind it is cell-based, human. Conditions: SKOV-3 cells, 5 days incubation.
Data set [14] deals with breast cancer cells MCF-7. Kind of data set: MTT cytotoxicity assay, MCF-7. In kind it is cell-based, human. Conditions: MCF-7 cells, 5 days incubation. The procedure:
as §1

Data set [15] deals with various mammalian cell lines. Kind of data set: Cytotoxic effects against the panel of mammalian cell lines (overall statement). In kind it is cell-based. As to conditions: all tested cell lines of Table 3. The procedure:
as §1

Each structure is given as a SMILES string. Values after ≈ are worked out from the molar mass of the structure shown.

With `CC(=O)[C@H]1[C@H](O)C[C@H]2C3=CC(=O)[C@H]4C[C@H](O)CC[C@]4(C)[C@@]3(O)CC[C@@]21C` [Compound 2, Aethiopinolone B], the IC50 at 5 days is 45 µg/mL (≈ 124 µM) in data set [1]; 39 µg/mL (≈ 108 µM) in [2]; greater than 70 µg/mL in data set [3]; greater than 70 µg/mL in [4]; greater than 70 µg/mL in data set [5]; greater than 70 µg/mL in [6]. Besides, in [7], the IC50 at 5 days is greater than 70 µg/mL.
Regarding `CC(=O)C1=CC[C@H]2C3=CC(=O)[C@H]4CC(=O)CC[C@]4(C)[C@@]3(O)CC[C@]12C` [Compound 5, Aethiopinolone E], the IC50 at 5 days in [1] is 40 µg/mL (≈ 117 µM); in data set [2], 33 µg/mL (≈ 96.4 µM); in data set [3] it was 14 µg/mL (≈ 40.9 µM); in data set [4], 43 µg/mL (≈ 126 µM); in data set [5] it was 39 µg/mL (≈ 114 µM); in data set [6] it was 34 µg/mL (≈ 99.3 µM). The half-maximal inhibitory concentration (IC50) at 5 days in data set [7] is 16 µg/mL (≈ 46.7 µM).
On to `C/C(=C\c1csc(C)n1)[C@@H]1C[C@@H]2O[C@]2(C)CCC[C@H](C)[C@H](O)[C@@H](C)C(=O)C(C)(C)[C@@H](O)CC(=O)O1` [Epothilon B, reference compound], for which the “Cytotoxicity IC50” value stood at 0.0014 µg/mL in data set [8]; 0.00022 µg/mL in data set [9]; 0.0006 µg/mL in data set [10]; 0.005 µg/mL in data set [11]; 0.0002 µg/mL in data set [12]; 0.0014 µg/mL in data set [13]. Besides, the “Cytotoxicity IC50” value in data set [14] worked out at 0.0004 µg/mL.
Take `CC(=O)C1=CC[C@H]2C3=CC(=O)[C@H]4C[C@@H](O)CC[C@]4(C)[C@@]3(O)CC[C@]12C` [Compound 3, Aethiopinolone C]: the concentration for half-maximal inhibition (IC50) at 5 days in [1] worked out at 40 µg/mL (≈ 116 µM); in [2] it was 35 µg/mL (≈ 102 µM); in [3], 27 µg/mL (≈ 78.4 µM); in [4], 70 µg/mL (≈ 203 µM); in [5] it was 45 µg/mL (≈ 131 µM); in data set [6], 38 µg/mL (≈ 110 µM). The same compound had a 50% inhibitory concentration (IC50) at 5 days in [7] of 18 µg/mL (≈ 52.3 µM). The “Cytotoxic activity against the tested cell lines (in words)” value (“Cytotoxic activity” for short) in [15] is reported as “moderate activity”.
For `CC(=O)C1=CC[C@H]2C3=CC(=O)[C@H]4C[C@H](O)CC[C@]4(C)[C@@]3(O)CC[C@]12C` [Compound 4, Aethiopinolone D], the IC50 at 5 days was found to be 45 µg/mL (≈ 131 µM) in [1]; 39 µg/mL (≈ 113 µM) in data set [2]; 21 µg/mL (≈ 61 µM) in [3]; 52 µg/mL (≈ 151 µM) in [4]; 40 µg/mL (≈ 116 µM) in data set [5]; 36 µg/mL (≈ 105 µM) in data set [6]. The compound also gave a 50% inhibitory concentration (IC50) at 5 days in data set [7] of 17 µg/mL (≈ 49.4 µM). The “Cytotoxic activity” value in [15] is listed as “moderate activity”.
As for `CC(=O)C1C(O)CC2C3=CC(=O)C4CC(O)CCC4(C)C3(O)CCC21C` (centres unmarked) [Compound 1, Aethiopinolone A], the concentration for half-maximal inhibition (IC50) at 5 days in data set [1] was 28 µg/mL (≈ 77.2 µM); in [2], 19 µg/mL (≈ 52.4 µM); in data set [3], 22 µg/mL (≈ 60.7 µM); in data set [5] it was 8 µg/mL (≈ 22.1 µM); in data set [6], 26 µg/mL (≈ 71.7 µM); in [7], 20 µg/mL (≈ 55.2 µM). The “Cytotoxic activity” value in [15] is given as “strongest activity”.

Source of the values: article PMC6017562, “Aethiopinolones A–E, New Pregnenolone Type Steroids from the East African Basidiomycete Fomitiporia aethiopica” (Molecules : A Journal of Synthetic Chemistry and Natural …, 2018).
